Assays:
Type in all cases: in vivo
Setaria (Set) [1] = experiment: Example B3 pre-emergence herbicidal action, MERGE oil additive 0.7% (Table B3); parameters: key: 1=total damage; 9=no action; settings: 500 g of active substance/ha; MERGE oil additive 0.7% by weight of the spray mixture; evaluation 3 weeks after application; scale of nine ratings
Protocol: (§1) Monocotyledonous and dicotyledonous weeds are sown in standard soil in plastics pots. Immediately after sowing, the test substances are applied in the form of an aqueous suspension (prepared from a 25% wettable powder (Example F3, b)) or in the form of an emulsion (prepared from a 25% emulsifiable concentrate (Example F1, c)) (500 liters of water/ha). The rate of application is 500 g of active substance/ha. The test plants are then grown in the greenhouse under optimum conditions. The evaluation is carried out 3 weeks after application, sing a scale of nine ratings (1=total damage, 9=no action). Ratings of from 1 to 4 (especially from 1 to 3) indicate good to very good herbicidal action. Test plants: Avena (Ave), Lolium (Lol), Setaria (Set).

Avena (Ave) [2] = experiment: as above; parameters: key: 1=total damage; 9=no action; settings: 500 g of active substance/ha; MERGE oil additive 0.7% by weight of the spray mixture; evaluation 3 weeks after application; scale of nine ratings
Protocol: as §1

Lolium (Lol) [3] = experiment: as above; parameters: key: 1=total damage; 9=no action; settings: 500 g of active substance/ha; MERGE oil additive 0.7% by weight of the spray mixture; evaluation 3 weeks after application; scale of nine ratings
Protocol: as §1

Setaria (Set) [4] = experiment: Example B4 post-emergence herbicidal action, MERGE oil additive 0.7% (Table B4); parameters: key: 1=total damage; 9=no action; settings: 500 g of active substance per hectare; applied at 3- to 6-leaf stage; MERGE oil additive 0.7% by weight of the spray mixture; evaluation 3 weeks after application; scale of nine ratings
Protocol: (§2) Monocotyledonous and dicotyledonous weeds are grown in standard soil in plastics pots under greenhouse conditions. The test substances are applied to the test plants at the 3- to 6-leaf stage. The test substances are applied at a rate of application of 500 g of active substance per hectare in the form of an aqueous suspension (prepared from a 25% wettable powder (Example F3, b)) or in the form of an emulsion (prepared from a 25% emulsifiable concentrate (Example F1, c)) (500 liters of water/ha). The evaluation is carried out 3 weeks after application, using a scale of nine ratings (1=total damage, 9=no action). Ratings of from 1 to 4 (especially from 1 to 3) indicate good to very good herbicidal action. Herbicidal Action After the Emergence of the Plants (Post-emergence Action) of Compounds of the Present Invention (for Description See Example B2) Test plants: Avena (Ave), Lolium (Lol), Setaria (Set).

Avena (Ave) [5] = experiment: as above; parameters: key: 1=total damage; 9=no action; settings: 500 g of active substance per hectare; applied at 3- to 6-leaf stage; MERGE oil additive 0.7% by weight of the spray mixture; evaluation 3 weeks after application; scale of nine ratings
Protocol: as §2

Lolium (Lol) [6] = experiment: as above; parameters: key: 1=total damage; 9=no action; settings: 500 g of active substance per hectare; applied at 3- to 6-leaf stage; MERGE oil additive 0.7% by weight of the spray mixture; evaluation 3 weeks after application; scale of nine ratings
Protocol: as §2

Alopecurus (Alo) [7] = experiment: Example B2 post-emergence herbicidal action (comparison test); parameters: key: 1=total damage; 9=no action; settings: 250 g of active ingredient/ha; 3- to 6-leaf stage; 3 weeks after application; scale of nine ratings, 1 to 4 = good to very good action
Protocol: (§3) Monocotyledonous and dicotyledonous weeds are grown in standard soil in plastics pots under greenhouse conditions. The test substances are applied to the test plants at the 3- to 6-leaf stage. […] suspension (prepared from a 25% wettable powder (Example F3, b)) or in the form of an emulsion (prepared from a 25% emulsifiable concentrate (Example F1, c)) (500 liters of water/ha). The evaluation is carried out 3 weeks after application, using a scale of nine ratings (1=total damage, 9=no action). Ratings of from 1 to 4 (especially from 1 to 3) indicate good to very good herbicidal action. Test plants: Alopecurus (Alo), Avena (Ave), Lolium (Lol), Setaria (Set), Panicum (Pan), Sorghum (Sor), Digitaria (Dig), Echinocloa (Ech) and Brachiaria (Bra).

Echinocloa (Ech) = experiment: as above; parameters: key: 1=total damage; 9=no action; settings: 250 g of active ingredient/ha; 3- to 6-leaf stage; 3 weeks after application; scale of nine ratings, 1 to 4 = good to very good action
Protocol: as §3

Setaria (Set) [8] = experiment: as above; parameters: key: 1=total damage; 9=no action; settings: 250 g of active ingredient/ha; 3- to 6-leaf stage; 3 weeks after application; scale of nine ratings, 1 to 4 = good to very good action
Protocol: as §3

Sorghum (Sor) [9] = experiment: as above; parameters: key: 1=total damage; 9=no action; settings: 250 g of active ingredient/ha; 3- to 6-leaf stage; 3 weeks after application; scale of nine ratings, 1 to 4 = good to very good action
Protocol: as §3

Avena (Ave) [10] = experiment: as above; parameters: key: 1=total damage; 9=no action; settings: 250 g of active ingredient/ha; 3- to 6-leaf stage; 3 weeks after application; scale of nine ratings, 1 to 4 = good to very good action
Protocol: as §3

Lolium (Lol) [11] = experiment: as above; parameters: key: 1=total damage; 9=no action; settings: 250 g of active ingredient/ha; 3- to 6-leaf stage; 3 weeks after application; scale of nine ratings, 1 to 4 = good to very good action
Protocol: as §3

Panicum (Pan) [12] = experiment: as above; parameters: key: 1=total damage; 9=no action; settings: 250 g of active ingredient/ha; 3- to 6-leaf stage; 3 weeks after application; scale of nine ratings, 1 to 4 = good to very good action
Protocol: as §3

Brachiaria (Bra) [13] = experiment: as above; parameters: key: 1=total damage; 9=no action; settings: 250 g of active ingredient/ha; 3- to 6-leaf stage; 3 weeks after application; scale of nine ratings, 1 to 4 = good to very good action
Protocol: as §3

Alopecurus (Alo) [14] = experiment: Example B1 pre-emergence herbicidal action (comparison test); parameters: key: 1=total damage; 9=no action; settings: 500 g of active ingredient/ha; 3 weeks after application; scale of nine ratings, 1 to 4 = good to very good action
Protocol: (§4) Monocotyledonous and dicotyledonous weeds are sown in plastics pots in standard soil. Immediately after sowing, the test substances are applied in the form of an aqueous suspension (prepared from a 25% wettable powder (Example F3, b)) or in the form of an emulsion (prepared from a 25% emulsifiable concentrate (Example F1, c)) (500 liters of water/ha). The rate of application is 500 g of active substance/ha. The test plants are then grown in the greenhouse under optimum conditions. The evaluation is carried out 3 weeks after application, using a scale of nine ratings (1=total damage, 9=no action). Ratings of from 1 to 4 (especially from 1 to 3) indicate good to very good herbicidal action. Test plants: Alopecurus (Alo), Avena (Ave), Lolium (Lol), Setaria (Set), Panicum (Pan), Sorghum (Sor), Digitaria (Dig), Echinochloa (Ech) and Brachiaria (Bra).

Setaria (Set) [15] = experiment: as above; parameters: key: 1=total damage; 9=no action; settings: 500 g of active ingredient/ha; 3 weeks after application; scale of nine ratings, 1 to 4 = good to very good action
Protocol: as §4

Sorghum (Sor) [16] = experiment: as above; parameters: key: 1=total damage; 9=no action; settings: 500 g of active ingredient/ha; 3 weeks after application; scale of nine ratings, 1 to 4 = good to very good action
Protocol: as §4

Avena (Ave) [17] = experiment: as above; parameters: key: 1=total damage; 9=no action; settings: 500 g of active ingredient/ha; 3 weeks after application; scale of nine ratings, 1 to 4 = good to very good action
Protocol: as §4

Lolium (Lol) [18] = experiment: as above; parameters: key: 1=total damage; 9=no action; settings: 500 g of active ingredient/ha; 3 weeks after application; scale of nine ratings, 1 to 4 = good to very good action
Protocol: as §4

Panicum (Pan) [19] = experiment: as above; parameters: key: 1=total damage; 9=no action; settings: 500 g of active ingredient/ha; 3 weeks after application; scale of nine ratings, 1 to 4 = good to very good action
Protocol: as §4

Echinochloa (Ech) = experiment: as above; parameters: key: 1=total damage; 9=no action; settings: 500 g of active ingredient/ha; 3 weeks after application; scale of nine ratings, 1 to 4 = good to very good action
Protocol: as §4

Brachiaria (Bra) [20] = experiment: as above; parameters: key: 1=total damage; 9=no action; settings: 500 g of active ingredient/ha; 3 weeks after application; scale of nine ratings, 1 to 4 = good to very good action
Protocol: as §4

Digitaria (Dig) [21] = experiment: as above; settings: 500 g of active ingredient/ha; 3 weeks after application; scale of nine ratings, 1 to 4 = good to very good action
Protocol: as §4

Digitaria (Dig) [22] = experiment: Example B2 post-emergence herbicidal action (comparison test); settings: 250 g of active ingredient/ha; 3- to 6-leaf stage; 3 weeks after application; scale of nine ratings, 1 to 4 = good to very good action
Protocol: as §3

Row | SMILES | Pre-emergence action, rating, Set (Setaria (Set) [1]) | Pre-emergence action, rating, Ave (Avena (Ave) [2]) | Pre-emergence action, rating, Lol (Lolium (Lol) [3]) | Post-emergence action, rating, Set (Setaria (Set) [4]) | Post-emergence action, rating, Ave (Avena (Ave) [5]) | Post-emergence action, rating, Lol (Lolium (Lol) [6]) | also measured
1 | CCc1cc(C)cc(CC)c1-c1c(O)n2n(c1=O)CC(OCCOCCOC)C(O)C2 (stereo not drawn) [1.35] | 1 | 1 | 1 | 1 | 1 | 1 | 
2 | CCc1cc(C)cc(CC)c1-c1c(OC(=O)C(C)(C)C)n2n(c1=O)CCCC2 [1.02] | 1 | 1 | 1 | 1 | 1 | 1 | Post-emergence action rating, Alo (Alopecurus (Alo) [7]): 1; Post-emergence action rating, Ech (Echinocloa (Ech)): 1; Post-emergence action, rating, Set (Setaria (Set) [8]): 1; Post-emergence action rating, Sor (Sorghum (Sor) [9]): 1; Post-emergence action, rating, Ave (Avena (Ave) [10]): 1; Post-emergence action, rating, Lol (Lolium (Lol) [11]): 1; Post-emergence action rating, Pan (Panicum (Pan) [12]): 1; Post-emergence action rating, Bra (Brachiaria (Bra) [13]): 1; Pre-emergence action rating, Alo (Alopecurus (Alo) [14]): 1; Pre-emergence action, rating, Set (Setaria (Set) [15]): 1; Pre-emergence action rating, Sor (Sorghum (Sor) [16]): 1; Pre-emergence action, rating, Ave (Avena (Ave) [17]): 1; Pre-emergence action, rating, Lol (Lolium (Lol) [18]): 1; Pre-emergence action rating, Pan (Panicum (Pan) [19]): 1; Pre-emergence action rating, Ech (Echinochloa (Ech)): 1; Pre-emergence action rating, Bra (Brachiaria (Bra) [20]): 1; Pre-emergence action rating, Dig (Digitaria (Dig) [21]): 4; Post-emergence action rating, Dig (Digitaria (Dig) [22]): 2
3 | CCc1cc(C)cc(CC)c1-c1c(O)n2n(c1=O)CC(=NOC)CC2 [1.30] |  |  |  | 1 | 1 | 1 | 
4 | CCc1cc(C)cc(CC)c1-c1c(O)n2n(c1=O)CC(OCCOC)CC2 (stereo not drawn) [1.15] |  |  |  | 1 | 1 | 2 | 

Source: US7459414B2, “Herbicides” (Syngenta Crop Protection, Inc., priority 2002, dated 2008)
